{
  "source": "patent US20250100963A1",
  "about": "“SULFONATED AND PHOSPHORYLATED AROMATIC MOLECULES” (Xavier University of Louisiana, priority 2023, published 2025)",
  "key": {"[1]": {"biological_target": "T1, CatG (Homo sapiens, UniProt P08311)", "T1 sequence (P08311 21-244)": "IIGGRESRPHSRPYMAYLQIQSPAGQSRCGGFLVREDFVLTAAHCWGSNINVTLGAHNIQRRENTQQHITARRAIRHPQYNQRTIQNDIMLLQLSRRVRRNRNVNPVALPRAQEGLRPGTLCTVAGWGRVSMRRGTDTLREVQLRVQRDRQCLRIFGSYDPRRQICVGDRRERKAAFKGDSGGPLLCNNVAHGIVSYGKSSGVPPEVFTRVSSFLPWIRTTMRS", "assay": "Salt-dependent direct inhibition of human CatG", "assay_type": "biochemical", "details": "for HS (Hill slope) / IC50 / ΔY (efficacy): pH 7.4, 37° C.; for Ki: estimated by IC50 to Ki conversion, noncompetitive model, read-out: Calculated Ki", "text": "The Ki (μM) values were estimated using an IC50 to Ki conversion equation [19].\nAlthough the sulfonated and/or phosphorylated compounds-CatG interaction is likely to be electrostatically driven, non-ionic forces may contribute to a significant extent. A significant non-ionic binding energy component increases the interaction specificity because the majority of non-ionic forces, for example, cation—π interactions, H-bonding and others depend strongly on the orientation and the distance of interacting pair of molecules. In contrast, ionic bonds are non-directional and less dependent on distance, which may increase initial interaction but offer less selectivity of recognition. […] The IC50 values were measured spectrophotometrically under various salt concentrations (100 and 200 mM), as described above. […] Subsequently, the corresponding Ki (nM) values were estimated using a formula previously reported following a classical model of noncompetitive enzyme inhibition and the results are reported below. […] Table 4 and FIG. 4."}, "[2]": {"biological_target": "T1, CatG", "assay": "CatG-mediated degradation of laminin, SDS-PAGE", "assay_type": "biochemical", "details": "inhibitor 10-1000 μM, CatG 0.8 μM, 60 min", "method": "The method further comprises inhibition of CatG-mediated degradation of laminin. Inhibition of CatG cleavage of laminin by sulfonated or phosphorylated compounds was studied using SDSPAGE. Briefly, CatG (0.8 μM) was incubated with different concentrations of the inhibitor (final concentrations; 0 μM, 10 μM, […] and 1000 μM), and laminin (20 μg). Following incubation for 60 min, the samples were quenched using SDS-PAGE loading buffer containing DTT and subjected to electrophoresis on 10% SDS-PAGE pre-cast gels. The gels were visualized by silver staining. […] In fact, based on their in vitro properties, it was reasoned that these inhibitors could protect extracellular matrix components from proteolysis mediated by proteinases activated during the inflammatory process including CatG. Accordingly, the in vitro effect of compound of Formula II on the CatG-mediated proteolysis of laminin, a non-collagenous component of ECM and basement membranes was studied. […] Thus, SDS-PAGE analyses indicate that sulfonated molecule inhibition of CatG is physiologically relevant.\nInhibition of CatG cleavage of laminin by sulfonated compounds was studied using SDSPAGE. Briefly, CatG (0.8 μM) was incubated with different concentrations of the inhibitor (final concentrations; 0 μM, 10 μM, 100 μM and 1000 μM), and laminin (20 μg). […]"}},
  "note": "Read-outs that look alike come from different tables or passages of the source.",
  "data": [
    {"smiles": "O=C(Nc1cc(C(=O)Nc2ccc(S(=O)(=O)O)cc2S(=O)(=O)O)cc(C(=O)Nc2ccc(S(=O)(=O)O)cc2S(=O)(=O)O)c1)Nc1cc(C(=O)Nc2ccc(S(=O)(=O)O)cc2S(=O)(=O)O)cc(C(=O)Nc2ccc(S(=O)(=O)O)cc2S(=O)(=O)O)c1", "note": "[Formula II, 4,4′,4″,4′-((5,5′-(carbonylbis(azanediyl))bis(isophthaloyl))tetrakis(azanediyl))tetrakis(benzene-1,3-disulfonic acid)]", "values": [
      {"measurement": "Decrease in potency on 2-fold increase in salt concentration", "setting": "[1]; 100 vs 200 mM salt", "value": "~10", "unit": "fold"},
      {"measurement": "HS (Hill slope)", "setting": "[1]; [NaCl] 100 mM", "value": "1.5 ± 0.3"},
      {"measurement": "IC50", "setting": "[1]; [NaCl] 100 mM", "value": "0.09 ± 0.01", "unit": "µM"},
      {"measurement": "ΔY (efficacy)", "setting": "[1]; [NaCl] 100 mM", "value": "82.5 ± 7.4", "unit": "%"},
      {"measurement": "Ki", "setting": "[1]; [NaCl] 100 mM", "value": "~0.075", "unit": "µM"},
      {"measurement": "HS (Hill slope)", "setting": "[1]; [NaCl] 200 mM", "value": "1.5 ± 0.3"},
      {"measurement": "IC50", "setting": "[1]; [NaCl] 200 mM", "value": "0.92 ± 0.15", "unit": "µM"},
      {"measurement": "ΔY (efficacy)", "setting": "[1]; [NaCl] 200 mM", "value": "75.2 ± 3.4", "unit": "%"},
      {"measurement": "Ki", "setting": "[1]; [NaCl] 200 mM", "value": "~0.91", "unit": "µM"},
      {"measurement": "Protection of laminin from cleavage by CatG", "setting": "[2]", "value": "protected completely"}
    ]}
  ]
}
